In US20100249048A1, “BETA GLYCOLIPIDS FOR THE TREATMENT OF CALCIFICATION RELATED DEGENERATIVE DISORDERS” (priority 2007, published 2010):

B1: PTH: peptide hormone, the most important regulator of calcium and phosphate metabolism (peptide, UniProt P01270 32-115, looked up)
Parathyroid hormone: SVSEIQLMHNLGKHLNSMERVEWLRKKLQDVHNFVALGAPLAPRDAGSQRPRKKEDNVLVESHEKSLGEADKADVNVLTKAKSQ
modifications: Parathyroid hormone

Key:
TNF-α = TNF-α levels in supernatants of myofibroblasts; assay type: cell-based, rat; conditions: myofibroblasts treated with foscarnet; 69 pg/ml without
From the text: (§1) In order to investigate whether the beneficial effect of foscarnet on the calcification process also affects immunomodulatory parameters, the inventors the effect of foscarnet on the levels of cytokines that are known as having a role in osteoblast transformation and maturation. Therefore, levels of TNF-α and IL-6 were next measured in supernatants of myofibroblasts treated with foscarnet. […] IL-6 levels.

IL-6 = IL-6 levels in supernatants of myofibroblasts; assay type: cell-based, rat; conditions: myofibroblasts treated with foscarnet
From the text: as §1

[1] = tested on: high Adenine, high phosphate rat model; assay: MSCT assessment of valve calcification (Agatston score), foscarnet study; assay type: in vivo; conditions: 5 mg/kg foscarnet i.p. (group B) vs diet group A, ninth week, P=0.05
Protocol: MSCT scanning without contrast was performed on all rats (Brilliance, Philips Medical Systems, Groningen, Netherlands) on the ninth week. Study parameters were: 120 KVp, 300 mAs, slice thickness 0.67 mm, increment 0.3 mm. The scan was analyzed by an operator blinded to the study groups, on an off-line CT workstation. The Agatston Score was calculated by multiplying the area of a calcified lesion with a weighted CT attenuation score dependent on the maximal CT attenuation (HU) within a lesion as previously described [Agatston, A. S., et al. Journal of the American College of Cardiology 15:827-832 (1990)]. In order to asses the effect of foscarnet on treating AVC in vivo, the high Adenine, high phosphate rat model was used. Three different groups (10 rats each) were fed daily with the Adenine diet (diet group) for 6 weeks (Group A). Group B (n=9) followed the same protocol and was also treated with 5 mg/kg foscarnet administered intraperitoneally (i.p.). The control group C, received daily chew. Renal function tests, electrolytes were followed for nine weeks. Multislice computed tomography (MSCT) was performed at the ninth week. Calcium scores were calculated using the Agatston score.

valve myofibroblasts = assay: Von Kossa staining of cultured valve myofibroblasts (calcification / mineralization); assay type: cell-based, rat; conditions: for osteogenic differentiation and calcification of valve myofibroblasts (Von kossa staining): 1, 10 or 100 μg/ml, fourteen days
Protocol: The present inventors have now further explored the calcification process in an attempt to specifically identify targets for interfering and prevention thereof. Therefore, the inventors next examined myofibroblasts obtained from the aortic valve of wild type rats, cultured in 24 well plates.
Myofibroblasts were incubated with PTH ([…]), or phosphate, 1, 10 or 100 μg/ml) for fourteen days. As shown by the Von kossa (calcium) staining presented by FIG. 7, the phosphate treatment, but not the PTH, induces osteogenic differentiation and calcification of valve myofibroblasts.
To test the possibility that inhibition of PIT1 would decrease mineralization, valve myofibroblasts were incubated with 10 μg/ml phosphate, or with phosphate and 0.5 mM foscarnet, the specific PIT1 inhibitor for 7 days.

Molecule | TNF-α levels in supernatants (TNF-α) | IL-6 levels in supernatants (IL-6) | AVC, Agatston score (MSCT) [1] | AVC, Agatston score (MSCT) ([1]; listed as Forscarnet) | cell mineralization (Von kossa staining) (valve myofibroblasts; 10 μg/ml phosphate plus 0.5 mM foscarnet, 7 days) | osteogenic differentiation and calcification of valve myofibroblasts (Von kossa staining) (valve myofibroblasts)
O=C(O)P(=O)(O)O [foscarnet] | 5 pg/mL | no effect | 21 | significant decrease | completely inhibited | –
phosphate | – | – | – | – | – | induces
B1 | – | – | – | – | – | not
